Test results published in patent US11911469B2, “Combination of ACAT1 inhibitor and checkpoint antibody for treating cancer” (Shanghai Institutes for Biological Sciences, Chinese …, priority 2016, dated 2024).

Assays:
CD8+ T cells = experiment: Cytokine and cytolytic granule production of stimulated CD8+ T cells; assay type: cell-based, mouse; conditions: pretreated cells stimulated with 5 μg ml−1 plate-bound anti-CD3/CD28; versus vehicle (DMSO)
Procedure: Peripheral T cells were isolated from mouse spleen and draining lymph nodes by a CD8^+ or CD4^+ T cell negative selection kit (Stem cell). To analyse the tumour-infiltrating T cells, tumours were first digested by collagenase IV (sigma), and tumour-infiltrating leukocytes were isolated by 40-70% percoll (GE) gradient centrifugation. To measure the effector function of CD8^+ T cells, the isolated cells were first stimulated with 1 μM ionomycin and 50 ng/ml PMA for 4 hours in the presence of 5 μg/ml BFA, and then stained with PERCP-α-CD8a. Next, cells were fixed with 4% PFA and stained with FITC-α-Granzyme B, APC-α-IFNγ and PE-α-TNFα. In general, to gate the cytokine or granule producing cells, T cells without stimulation or stained with isotype control antibody were used as negative controls. This gating strategy is applicable for most of the flow cytometric analyses. To detect the MDSCs (myeloid-derived suppressor cells) in the tumour, the percoll isolated leukocyte were stained with α-CD45, α-CD11b and α-Ly6G (Gr1), the CD45^+ population was gated, after which the MDSC population (CD11b^+ Gr1^+) in CD45^+ were gated.
(§1) CD8^+ T cells were pretreated with vehicle (dimethylsulfoxide, DMSO), CP-113,818 or K604. Then the cells were stimulated with 5 μg ml^−1 plate-bound anti-CD3/CD28, and cytokine and cytolytic granule production was studied. Cytotoxicity of OT-I CTLs pretreated with CP-113,818 or K604 or vehicle was also studied.

OT-I CTLs = experiment: Cytotoxicity of OT-I CTLs against antigen-pulsed EL-4 cells (LDH assay); assay type: cell-based, mouse; conditions: for cytotoxicity of CD8+ T cells: OT-I CTLs pretreated with compound or vehicle
Procedure: To generate mature Cytotoxic T lymphocytes (CTLs), splenocytes isolated from Acat1^CKO-OT-I mice or WT OT-I mice were stimulated with OVA257-264 (N4) for 3 days in the presence of 10 ng/ml IL-2. Cells were centrifuged and cultured in fresh medium containing 10 ng/ml IL-2 for 2 more days, after which most of the cells in the culture were CTLs. To measure CD8^+ T-cell cytotoxicity, EL-4 cells were pulsed with 2 nM antigenic peptide (N4, A2, T4, G4, R4 or Catnb) for 30 minutes. After washing EL-4 cells and CTLs three times with PBS, we mixed CTLs and antigen-pulsed EL-4 cells (1×10^5) in the killing medium (phenol free-RPMI 1640, 2% FBS), at the ratio of 1:1, 1:2 and 1:5, respectively. After 4 hours, the cytotoxic efficiency was measured by quantifying the release of endogenous lactate dehydrogenase (LDH) from EL-4 cells using a CytoTox 96 Non-Radioactive Cytotoxicity kit (Promega).
as §1
(§2) To study ACAT1 inhibitors in cancer immunotherapies in mice, melanoma-bearing mice were treated with a potent ACAT-1 inhibitor, avasimibe (Ava), or DMSO control, and tumour size and survival were studied. A combined therapy (avasimibe and anti-PD-1) or monotherapies (avasimibe or anti-PD-1) were also studied and compared in treating melanoma. In a lung cancer model, Lewis lung carcinoma-bearing mice were treated with avasimibe or DMSO control, and tumour multiplicity and survival were studied. Cytokine productions of stimulated human (h) CD8^+ T cells pretreated with avasimibe, CP-113,818, or DMSO. CTL cytotoxicity after avasimibe treatment was measured by the LDH assay. OT-I CTLs were pretreated with avasimibe or vehicle for 6 h and then incubated with EL-4 cells pulsed with OVA257-264 peptide for 4 h.

B16F10 cells = experiment: Skin melanoma mouse model, avasimibe therapy; assay type: in vivo; conditions: melanoma-bearing mice; avasimibe 15 mg/kg intraperitoneally every 2 days from Day 10; versus DMSO control
Procedure: B16F10 cells were washed three times with PBS, filtered by a 40 μm strainer. […] From Day 10, tumour size was measured every 2 days, and animal survival rate was recorded every day. Tumour size was calculated as length×width. Mice with tumour size larger than 20 mm at the longest axis were euthanized for ethical consideration. To analyse effector function of tumour-infiltrating T cells, mice were euthanized on Day 16. In the avasimibe therapy, on Day 10 mice bearing tumour of similar size were randomly divided into two groups. From Day 10, avasimibe was injected intraperitoneally to the mice at the dose of 15 mg/kg every 2 days.
as §2, with “OT-I CTLs were pretreated with avasimibe or vehicle for 6 h and then incubated with EL-4 cells pulsed with OVA257-264 peptide for 4 h.” left out

[1] = test system: Lewis lung carcinoma (LLC); experiment: Lewis lung carcinoma (LLC) model, avasimibe therapy; assay type: in vivo, mice; conditions: avasimibe 15 mg/kg intraperitoneally every 3 days, Day 10 to Day 35; versus DMSO control
Procedure: The LLC cells were washed twice with PBS and filtered by a 40 μm strainer. After which, the LLC cells (2×10^6) were intravenously injected into WT or Acat1^CKO mice at the age of 8-10 weeks. To detect the tumour multiplicity in the lung, the mice were euthanized at Day 35 post tumour inoculation and tumour numbers in the lung were counted. In the avasimibe therapy, on Day 10 mice were randomly divided into two groups. From Day 10 to Day 35 post tumour inoculation, avasimibe was injected intraperitoneally to the mice at the dose of 15 mg/kg every 3 days.
as §2

human CD8+ T cells = experiment: Human CD8+ T-cell cytokine production; assay type: cell-based; conditions: PBMCs pretreated 12 hours, stimulated with plate-bound α-CD3 and α-CD28 (5 μg/ml each) for 24 hours; versus DMSO
Procedure: Human peripheral blood mononuclear cells (PBMCs) from healthy donators were stimulated with 5 μg/ml PHA (Sigma) for 2 days and then rested for 1 day. Cells were pretreated with vehicle (DMSO), CP113, 818 or avasimibe for 12 hours and then stimulated with plate-bound α-CD3 (5 μg/ml) and α-CD28 (5 μg/ml) antibodies for 24 hours. Intracellular staining and flow cytometry were used to assess cytokines production of CD8^+ T cells. […] A combined therapy (avasimibe and anti-PD-1) or monotherapies (avasimibe or anti-PD-1) were also studied and compared in treating melanoma. In a lung cancer model, Lewis lung carcinoma-bearing mice were treated with avasimibe or DMSO control, and tumour multiplicity and survival were studied. […] CTL cytotoxicity after avasimibe treatment was measured by the LDH assay. OT-I CTLs were pretreated with avasimibe or vehicle for 6 h and then incubated with EL-4 cells pulsed with OVA257-264 peptide for 4 h.

[2] = doses at least up to 750 mg four times daily (i.e., 3000 mg/day); cited from earlier work

Structure (SMILES) | cytolytic granule and cytokine productions of CD8+ T cells (CD8+ T cells) | cytotoxicity of CD8+ T cells (OT-I CTLs) | also measured
CCCCCCCC[C@H](SCCCCCC)C(=O)Nc1c(SC)cc(C)nc1SC [CP-113,818, (S)-N-(2,4-Bis(methylthio)-6-methylpyridin-3-yl)-2-(hexylthio)decanoic acid amide] | augmented | augmented | 
CSc1cc(C)nc(SC)c1NC(=O)CN1CCN(CCSc2nc3ccccc3[nH]2)CC1 [K604, 2-[4-[2-(benzimidazol-2-ylthio)ethyl]piperazin-1yl]-N-[2,4-bis(methylthio)-6-methyl-3-pyridyl]acetamide] | augmented | augmented | 
CC[C@H](C)C(=O)O[C@H]1C[C@@H](C)C=C2C=C[C@H](C)[C@H](CC[C@@H]3C[C@@H](O)CC(=O)O3)[C@H]21 [Lovastatin] | significantly decreased |  | 
CCN(CC)CCO[C@H]1CC[C@@]2(C)C(=CC[C@@H]3[C@@H]2CC[C@]2(C)C(=O)CC[C@@H]32)C1 [U18666A] | significantly decreased |  | 
CC(C)c1cc(C(C)C)c(CC(=O)NS(=O)(=O)Oc2c(C(C)C)cccc2C(C)C)c(C(C)C)c1 [avasimibe, [2,6-di(propan-2-yl)phenyl] N-[2-[2,4,6-tri(propan-2-yl)phenyl]acetyl]sulfamate] |  |  | effector function of mouse CD8+ T cells ex vivo (CTL cytotoxicity, LDH assay) (OT-I CTLs; OT-I CTLs pretreated for 6 h, then incubated with OVA257-264 pulsed EL-4 cells for 4 h): enhance; survival time (B16F10 cells): prolonged; tumour growth (B16F10 cells): inhibited; antitumor effect in Lewis lung carcinoma (tumour multiplicity and survival) [1]: good antitumor effect; cytokine production of human CD8+ T cells (human CD8+ T cells): enhanced; tolerability in adult human subjects [2]: well tolerated
